Test results: patent US20040147567A1, “Arginine derivatives” (priority 2001, published 2004)

Target: T1, human MC4 receptor (Homo sapiens, UniProt P32245)
T1 construct: purchased Biolinks Co; host or cells: HEK-293 cell membranes
Experiment: MC4 receptor binding assay ([125I]Nle4-D-Phe7-α-MSH displacement)
Conditions: HEK-293 cell membranes expressing the human MC4 receptor; [125I]Nle4-D-Phe7-α-MSH 0.2 nM; 25° C., 120 minutes
Experimental: Experiment 1 [MC4 Receptor Binding Assay]
MC4 receptor binding assay was carried out according to the method described in Pharmacology & Toxicology, 79, 161-165, 1996. HEK-293 cell membranes expressing the human MC4 receptor were purchased from Biolinks Co. The cell membranes were homogenized in a 50 mM Tris hydrochloric acid buffer solution (pH 7.4) containing 2 mM ethylenediamine tetraacetic acid, 10 mM calcium chloride and 100 μM phenylmethanesulfonylfluoride. The homogenate was centrifuged at 48,000×g for 20 minutes at 4° C. The precipitate obtained by centrifugation was again homogenized in the same buffer solution, and the homogenate was centrifuged at 48,000×g for 20 minutes at 4° C. This procedure was repeated twice. The precipitate was suspended in 50 mM Tris hydrochloric acid buffer solution (pH 7.4) containing 2 mM ethylenediamine tetraacetic acid, 10 mM calcium chloride, 100 μM phenylmethanesulfonylfluoride and 0.1% bovine serum albumin to adjust to a protein concentration of 100 μg/ml to give a crude membrane preparation which was used for the binding assay. The crude membrane preparation (0.25 ml, 25 μg protein) was reacted with [^125I]Nle^4-D-Phe^7-α-MSH (final concentration; 0.2 nM) at 25° C. for 120 minutes. […] The radioactivity on the filter paper was measured in a gamma-counter. […] The IC50 value was calculated from the inhibition curve in the concentration of 10^−9-10^−5.

T1 sequence (P32245 whole entry): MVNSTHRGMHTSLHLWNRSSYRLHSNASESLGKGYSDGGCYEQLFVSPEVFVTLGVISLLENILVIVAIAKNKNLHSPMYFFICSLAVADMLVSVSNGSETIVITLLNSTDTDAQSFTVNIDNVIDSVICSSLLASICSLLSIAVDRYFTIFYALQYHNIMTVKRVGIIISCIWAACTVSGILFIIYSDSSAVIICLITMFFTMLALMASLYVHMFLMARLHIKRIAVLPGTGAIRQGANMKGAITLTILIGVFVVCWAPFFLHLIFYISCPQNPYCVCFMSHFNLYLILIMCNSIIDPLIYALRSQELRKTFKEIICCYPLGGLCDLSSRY

CC(=O)N[C@H](Cc1cccc2ccccc12)C(=O)N[C@@H](CCCNC(=N)N)C(=O)N[C@H](Cc1ccc2ccccc2c1)C(N)=O [Compound 224]
IC50: 690 nM
